This is an account of results in publication PMC4811770 (eLife, 2016).

For orientation: pKd means the negative decadic logarithm of the Kd, by convention in mol/L. By pEC50 is commonly meant the negative decadic logarithm of the EC50, by convention in mol/L.

pEC50, pKd: −log10 of the molar value. Structures can show the parent of a compound that is named as a salt. Where two headings read alike, the source gives them in different places. Some results are limits rather than exact numbers.

For experiment [1], the system named is HEK293 cells expressing SSTR3-mlCNBD-FRET. In words: FRET change in HEK293 cells expressing SSTR3-mlCNBD-FRET. To be noted: 20 μM isoproterenol, n = 9. The format is cell-based. As for the experimental part: Cells were cultured in Ibidi μ-slides (Ibidi, Planegg, Germany) attached to a home-built gravity-flow perfusion system. Measurements were performed using a CellR live-cell imaging system (Olympus) with 20x objective. […] Isoproterenol and SNP, Sigma-Aldrich). FRET was recorded by exciting cerulean at 436 nm and measuring the emission of cerulean and citrine at 470 nm and 535 nm, respectively. The change in FRET (emissioncerulean/emissioncitrine) was calculated, corrected for bleed-through, normalized to the baseline, and plotted versus time. The full-length mouse SSTR3 cloned into pEGFP-N1 was kindly provided by Greg Pazour (UMass Medical School). For expression of SSTR3-tagged mlCNBD-FRET, the SSTR3 coding sequence was amplified by a recombinant PCR reaction to delete the internal NheI site. The fragment was subcloned into […].

Experiment [2] has as its system HEK293 cells expressing mlCNBD-FRET. The experiment is described as follows: cAMP/cGMP dynamics (FRET ratio) in HEK293 cells expressing mlCNBD-FRET after drug stimulation. The format is cell-based. To be noted: 20 µM isoproterenol, n = 9. On the procedure: Cells were cultured in Ibidi μ-slides (Ibidi, Planegg, Germany) attached to a home-built gravity-flow perfusion system. Measurements were performed using a CellR live-cell imaging system (Olympus) with 20x objective. Cells were perfused with extracellular solution (ES: 120 mM NaCl, 5 mM KCl, 2 mM MgCl2, 2 mM CaCl2, 10 mM HEPES, 10 mM glucose, pH 7.4) to determine the basal FRET ratio and then the stimulus was added (NKH477 and IBMX, Tocris, Wiesbaden, Germany; Isoproterenol and SNP, Sigma-Aldrich). FRET was recorded by exciting cerulean at 436 nm and measuring the emission of cerulean and citrine at 470 nm and 535 nm, respectively. The change in FRET (emissioncerulean/emissioncitrine) was calculated, corrected for bleed-through, normalized to the baseline, and plotted versus time.
For population measurement using a spectrofluorometer (Quantamaster 40, PTI), HEK293 cells were trypsinized at 37°C for 5 min and washed twice with ES. […] Fluorescence spectra at steady-state were recorded with excitation at 430 nm and 0.5 s integration time. For time-resolved measurements, cells were excited at 430 nm and emission was recorded at 470 nm (cerulean) and 530 nm (citrine) at an acquisition frequency of 1 Hz. The change in FRET (emissioncerulean/emissioncitrine) was calculated, corrected for bleed-through, normalized to the baseline, and plotted versus time.

For the next experiment, the target named is T1, mlCNBD-FRET (Mesorhizobium japonicum, UniProt Q98GN8).
T1 construct: gene mll3241; CNBD (Phe223 to Arg349) with citrine fused to N-terminus and cerulean to C-terminus, C-terminal His10 tag
T1 sequence (Q98GN8 223-349): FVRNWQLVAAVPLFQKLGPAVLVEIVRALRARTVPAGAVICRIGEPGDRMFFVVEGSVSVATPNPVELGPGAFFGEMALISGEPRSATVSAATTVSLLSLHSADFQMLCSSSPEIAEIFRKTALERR
The experiment is described as follows: Spectrofluorometric titration of 1 uM purified sensor with cGMP, cerulean/citrine FRET ratio at 430 nm excitation, single-site fit. The format is binding. To be noted: SD, n = 6.

Experiment [3] has as its system sperm flagellum (mlCNBD-FRET sperm). The experiment is described as follows: Dual-view FRET imaging of cAMP dynamics in the flagellum of mlCNBD-FRET sperm. Format: cell-based, mouse.
The next experiment concerns T2, tmAC.
T2 construct: endogenous in HEK293 cells, isoform not specified
The experiment is described as follows: Maximal cAMP-dependent FRET ratio of mlCNBD-FRET in HEK293 cells after stimulation of endogenous adenylate cyclases with increasing NKH477 concentrations. The format is cell-based. As to conditions: SD, n = 4.

A further experiment relates to wild-type sperm. In words: Intracellular pH measurement with BCECF in wild-type sperm. Format: cell-based, mouse.
The next experiment has as its system sperm. To be noted: 25 mM bicarbonate, after rapid rise at 1 min.
Setting [4] is: stopped-flow, 10 mM NH4Cl or 25 mM bicarbonate.
Setting [5] is: perfusion with 25 mM bicarbonate, n = 7.

On to `CC(C)NCC(O)c1ccc(O)c(O)c1` (centres unmarked) [isoproterenol], for which, in experiment [1], the “increase of FRET ratio” value was “approximately 25%”. The “change of ΔF” value in experiment [2] is given as 47 ± 3%.
Consider `Nc1nc2c(ncn2[C@@H]2O[C@@H]3COP(=O)(O)O[C@H]3[C@H]2O)c(=O)[nH]1` [cGMP, cyclic guanosine 3',5'-monophosphate], for which the pKd on mlCNBD-FRET was 6.30.
Take `C=CC1(C)CC(=O)C2(O)C(C)(O1)C(OC(C)=O)C(OC(=O)CCN(C)C)C1C(C)(C)CCC(O)C12C` (centres unmarked) [NKH477]: the “cAMP change (FRET) in midpiece or principal piece” value in experiment [3] (perfusion with 40 μM NKH477, n = 3) is 0 ± 3%.
With `C=CC1(C)CC(=O)C2(O)C(C)(O1)C(OC(C)=O)C(OC(=O)CCN(C)C)C1C(C)(C)CCC(O)C12C` (centres unmarked) [NKH477, colforsin daropate hydrochloride (water-soluble forskolin derivative)], in the experiment on tmAC, the pEC50 was 5.44.
With `Cl.N` [NH4Cl], in the experiment on wild-type sperm (setting [4]), the “change in pHi” value is on record as “pronounced alkalization”.
On to `O=C([O-])CN(CC(=O)[O-])c1ccccc1OCCOc1ccccc1N(CC(=O)[O-])CC(=O)[O-].[K+].[K+].[K+].[K+]` [BAPTA, 1,2-Bis(2-aminophenoxy)ethane-N,N,N′,N′-tetraacetic acid tetrapotassium salt], for which, in the experiment with wild-type sperm (spectrofluorometer, 3 mM BAPTA reducing [Ca2+]o to 443 nM), the “change in pHi” value is “did not change pHi”.
`O=C([O-])O.[Na+]` [bicarbonate, NaHCO3]: the “cAMP increase (FRET) in midpiece” value in experiment [3] (setting [5]) is on record as 26 ± 3%. Further, the “cAMP increase (FRET) in principal piece” value in experiment [3] (setting [5]) turned out to be 22 ± 10%. In addition, the “change in pHi” value in the experiment on wild-type sperm (setting [4]) is “did not dramatically change pHi”. Further, the “time for total cAMP levels to decline to basal levels” value in the experiment with sperm is at most 10 min. Moreover, the “change in cAMP (FRET)” value in the experiment on mlCNBD-FRET sperm (25 mM bicarbonate, 10 μM [Ca2+]o) was “did not change the cAMP concentration”; with mlCNBD-FRET sperm (bicarbonate at 2.2 nM [Ca2+]o (10 μM Ca2+/1 mM BAPTA)), “did not further enhance cAMP levels”. In addition, the “time to steady-state of free cAMP increase” value in the experiment with mlCNBD-FRET sperm (25 mM bicarbonate, 2 mM Ca2+ buffer) is reported as “about 5 min”.
